Data: patent US6365621B1, “Remedies or preventives for intractable epilepsy” (Pharmaceutical Co., Ltd., priority 1998, dated 2002)

Test system: kainate-induced amygdala seizures
Experiment: Local cerebral glucose metabolism during kainate-induced amygdala seizures ([14C]deoxyglucose autoradiography)
Format: in vivo, rat
Parameters: key to Effect on local cerebral glucose metabolism rate: → : no change; →↓ : decreased in a low degree; ↓ : decreased in a moderate degree; ↓↓ : decreased in a high degree
Details: for Local glucose metabolism rate: average ± standard error
Text: [Method for measuring cerebral glucose metabolism] Cannulas for injection of kainic acid were inserted in an assigned position of the left side of the amygdala of 18 Wistar male rats and fixed through the same procedure as described in Example I-1. Seven days after operation, polyethylene catheters were set and fixed to the femoral artery and vein of one side under halothane anesthesion, and the lower half of the body of each rat were put in plaster so as to prevent removal of the catheter. Upon awakening from narcotism, the same kainic acid solution as described in I-1 (1 μL) was injected through the cannula so as to induce seizures. After elapse of 90 minutes from injection of kainic acid, when limbic system seizures were in status epilepticus, 50, 100, or 200 mg/kg of nefiracetam was intravenously injected, whereas saline was injected into rats of the control group. After 60 minutes, 25 μCi of [^14C] deoxyglucose was intravenously injected. After the tracer was injected, blood was continuously collected from the artery for 45 minutes. When collection was finished, heads were cut off. Brains were extirpated immediately and instantly frozen in by hexane (−25° C.) cooled by dry ice. The frozen brain was sliced in a cryostat (−20° C.) so as to produce coronary, serial-frozen sections having a thickness of 20 μm. Subsequently, the sections were dried and put on high-speed X-ray film with a [^14C] standard, followed by seven-day-exposure in a cassette to thereby obtain an autoradiogram. The blood samples collected from the artery were centrifuged so as to collect plasma, the [^14C] radioactivity was measured by use of a liquid scintillation counter, and glucose concentration in plasma was measured.
The optical density of the intracerebral structure of each section was measured from the autoradiogram by use of a densitometer, and a glucose utilization rate of each intracerabral structure was calculated by use of the formula of Sokoloff (Sokoloff, L., Reivich, M., Kennedy, C., et al., J. Neurochemistry, 28: 897-916, 1977) based on [^14C] radioactivity and glucose concentration in plasma. The obtained data were compared quantitatively and statistically with those of the control group, through the Mann-Whitney U-test.

[1] = Occipital lobe cortex, non-focal side, 100 mg/kg i.v.
[2] = Parietal lobe cortex, focal side, 100 mg/kg i.v.
[3] = Parietal lobe cortex, non-focal side, 100 mg/kg i.v.
[4] = Sensorimotor area cortex, focal side, 100 mg/kg i.v.
[5] = Sensorimotor area cortex, non-focal side, 100 mg/kg i.v.
[6] = Septal area, focal side, 100 mg/kg i.v.
[7] = Septal area, non-focal side, 100 mg/kg i.v.
[8] = Substantia nigra, focal side, 100 mg/kg i.v.
[9] = Substantia nigra, non-focal side, 100 mg/kg i.v.
[10] = Temporal lobe cortex, focal side, 100 mg/kg i.v.
[11] = Temporal lobe cortex, non-focal side, 100 mg/kg i.v.
[12] = Thalamus, focal side, 100 mg/kg i.v.
[13] = Thalamus, non-focal side, 100 mg/kg i.v.
[14] = hippocampus, focal side, 100 mg/kg i.v.
[15] = hippocampus, non-focal side, 100 mg/kg i.v.

## Cc1cccc(C)c1NC(=O)CN1CCCC1=O [nefiracetam, N-(2,6-dimethylphenyl)-2-(2-oxo-1-pyrrolidinyl)acetamide]
Occipital lobe cortex, focal side, 200 mg/kg i.v.
  Effect on local cerebral glucose metabolism rate: ↓
Occipital lobe cortex, non-focal side, 50 mg/kg i.v.
  Effect on local cerebral glucose metabolism rate: →
[1]
  Effect on local cerebral glucose metabolism rate: →↓
  Local glucose metabolism rate: 78.6 ± 5.8 µmol/100 g/min
Occipital lobe cortex, non-focal side, 200 mg/kg i.v.
  Effect on local cerebral glucose metabolism rate: ↓
Parietal lobe cortex, focal side, 50 mg/kg i.v.
  Effect on local cerebral glucose metabolism rate: →
[2]
  Effect on local cerebral glucose metabolism rate: →↓
  Local glucose metabolism rate: 109 ± 10.6 µmol/100 g/min
Parietal lobe cortex, focal side, 200 mg/kg i.v.
  Effect on local cerebral glucose metabolism rate: ↓
Parietal lobe cortex, non-focal side, 50 mg/kg i.v.
  Effect on local cerebral glucose metabolism rate: →
[3]
  Effect on local cerebral glucose metabolism rate: →↓
  Local glucose metabolism rate: 72.1 ± 4.9 µmol/100 g/min
Parietal lobe cortex, non-focal side, 200 mg/kg i.v.
  Effect on local cerebral glucose metabolism rate: ↓
Sensorimotor area cortex, focal side, 50 mg/kg i.v.
  Effect on local cerebral glucose metabolism rate: →
[4]
  Effect on local cerebral glucose metabolism rate: →
  Local glucose metabolism rate: 139 ± 9 µmol/100 g/min
Sensorimotor area cortex, focal side, 200 mg/kg i.v.
  Effect on local cerebral glucose metabolism rate: ↓
Sensorimotor area cortex, non-focal side, 50 mg/kg i.v.
  Effect on local cerebral glucose metabolism rate: →
[5]
  Effect on local cerebral glucose metabolism rate: ↓
  Local glucose metabolism rate: 73.4 ± 4.7 µmol/100 g/min
Sensorimotor area cortex, non-focal side, 200 mg/kg i.v.
  Effect on local cerebral glucose metabolism rate: ↓
Septal area, focal side, 50 mg/kg i.v.
  Effect on local cerebral glucose metabolism rate: →
[6]
  Effect on local cerebral glucose metabolism rate: ↓
  Local glucose metabolism rate: 117 ± 22.7 µmol/100 g/min
Septal area, focal side, 200 mg/kg i.v.
  Effect on local cerebral glucose metabolism rate: ↓↓
Septal area, non-focal side, 50 mg/kg i.v.
  Effect on local cerebral glucose metabolism rate: →
[7]
  Effect on local cerebral glucose metabolism rate: ↓↓
  Local glucose metabolism rate: 56.9 ± 3.3 µmol/100 g/min
Septal area, non-focal side, 200 mg/kg i.v.
  Effect on local cerebral glucose metabolism rate: ↓↓
Substantia nigra, focal side, 50 mg/kg i.v.
  Effect on local cerebral glucose metabolism rate: →
[8]
  Effect on local cerebral glucose metabolism rate: ↓
  Local glucose metabolism rate: 77.6 ± 6.8 µmol/100 g/min
Substantia nigra, focal side, 200 mg/kg i.v.
  Effect on local cerebral glucose metabolism rate: ↓
Substantia nigra, non-focal side, 50 mg/kg i.v.
  Effect on local cerebral glucose metabolism rate: →
[9]
  Effect on local cerebral glucose metabolism rate: ↓
  Local glucose metabolism rate: 45.9 ± 2.7 µmol/100 g/min
Substantia nigra, non-focal side, 200 mg/kg i.v.
  Effect on local cerebral glucose metabolism rate: ↓
Temporal lobe cortex, focal side, 50 mg/kg i.v.
  Effect on local cerebral glucose metabolism rate: →
[10]
  Effect on local cerebral glucose metabolism rate: →↓
  Local glucose metabolism rate: 103 ± 6.2 µmol/100 g/min
Temporal lobe cortex, focal side, 200 mg/kg i.v.
  Effect on local cerebral glucose metabolism rate: ↓
Temporal lobe cortex, non-focal side, 50 mg/kg i.v.
  Effect on local cerebral glucose metabolism rate: →
[11]
  Effect on local cerebral glucose metabolism rate: ↓
  Local glucose metabolism rate: 67.8 ± 3.5 µmol/100 g/min
Temporal lobe cortex, non-focal side, 200 mg/kg i.v.
  Effect on local cerebral glucose metabolism rate: ↓
Thalamus, focal side, 50 mg/kg i.v.
  Effect on local cerebral glucose metabolism rate: →
[12]
  Effect on local cerebral glucose metabolism rate: ↓
  Local glucose metabolism rate: 90.5 ± 3.8 µmol/100 g/min
Thalamus, focal side, 200 mg/kg i.v.
  Effect on local cerebral glucose metabolism rate: ↓↓
Thalamus, non-focal side, 50 mg/kg i.v.
  Effect on local cerebral glucose metabolism rate: ↓
[13]
  Effect on local cerebral glucose metabolism rate: ↓↓
  Local glucose metabolism rate: 72.3 ± 2.8 µmol/100 g/min
Thalamus, non-focal side, 200 mg/kg i.v.
  Effect on local cerebral glucose metabolism rate: ↓↓
hippocampus, focal side, 50 mg/kg i.v.
  Effect on local cerebral glucose metabolism rate: →↓
[14]
  Effect on local cerebral glucose metabolism rate: ↓
  Local glucose metabolism rate: 184 ± 7.1 µmol/100 g/min
hippocampus, focal side, 200 mg/kg i.v.
  Effect on local cerebral glucose metabolism rate: ↓↓
hippocampus, non-focal side, 50 mg/kg i.v.
  Effect on local cerebral glucose metabolism rate: ↓
[15]
  Effect on local cerebral glucose metabolism rate: ↓↓
  Local glucose metabolism rate: 87.2 ± 8.9 µmol/100 g/min
hippocampus, non-focal side, 200 mg/kg i.v.
  Effect on local cerebral glucose metabolism rate: ↓↓
